Assay results reported in patent US20240327364A1, “THERAPEUTIC TARGETING OF GPR68 TO INDUCE FERROPTOSIS” (University Of Maryland, Baltimore, priority 2023, published 2024).
Like-named read-outs stand apart in the source and are kept apart here.

Columns and labels:
HeLa = experiment: Cell Titer-Glo viability, Cervical cancer; assay type: cell-based
Description: (§1) OGM2 kills wide variety of cancer cell types. Cell sensitivity can be classified in to Very Sensitive (LC50<2 μM), Sensitive (LC50=2 to 10 μM), Mildly Sensitive (LC50>10 μM), and Refractory (no killing at 10 μM). The listed established cell were incubated with OGM2 at 2 μM or 10 μM for 72 hours under standard cell culture conditions, and relative cell number was assessed using Cell Titer-Glo Luminescent Cell Viability Assay (Promega™) following the manufacturer's instructions. Luminescence was determined using a Cytation 5 reader and Gen5 software package (BioTek™).
(§2) Cancer cells, which are very sensitive to killing by OGM2 (LCs <2 μM), with reported mRNA expression of GPR68 and the related proton sensing receptor GPR4. LC50's (concentrations causing 50% lethality) were determined using CellTiter-Glo (Promega™, G7570). Cells were plated in 12-well plates (CELLTREAT Scientific Products, 229112) in 1 ml of DMEM with high glucose, GlutaMAX, HEPES, or RPMI 1640 with Penicillin-Streptomycin (ThermoFisher™, 10564029, 11875119 and 15140122) and 10% FBS. Cells were incubated overnight at 37° C. in 5% CO2. Then 1 mL of fresh media was added with DMSO, OGM, or positive control (Erastin; APExBIO Technology, LLC, B1524) and cells incubated for 3 days. On the third day, all media was removed, cells were rinsed with 1×PBS, PBS was removed, and 200 μL of 1× Passive Lysis Buffer (Promega™, E1941) was added to each well. […]. Subsequently, 20 μL of lysate was added to 100 μL CellTiter-Glo™ reagent on a LUMITRAC 200 plate (Greiner™ bio-one, 82050-726). Plates were briefly spun down and read on a GloMax-Multi Detection System (Promega™).
(§3) The cells listed in the tables above were incubated with OGM2 at 2 μM or 10 μM for 72 hours under standard cell culture conditions, and relative cell number was assessed using Cell Titer-Glo Luminescent Cell Viability Assay (Promega™) following the manufacturer's instructions. Luminescence was determined using a Cytation 5 reader and Gen5 software package (BioTek™). RNA expression of GPR68 and GPR4 in the corresponding cancer cell lines are listed, according to the publicly available The Human Protein Atlas version 22.0 and Ensembl version 103.38 (see proteinatlas.org). The consensus normalized expression value (“nTPM”=normalize transcript per million) was calculated as the maximum nTPM value for each gene in the two data sources.

MDA-MB-436 = experiment: Cell Titer-Glo viability, Breast adenocarcinoma; assay type: cell-based
Description: as §1, §2, §3

MCF7 = experiment: Cell Titer-Glo viability, Breast adenocarcinoma; assay type: cell-based
Description: as §1, §2, §3

MDA-MB-231 = experiment: Cell Titer-Glo viability, Breast adenocarcinoma; assay type: cell-based
Description: as §1, §2, §3

SIK2 = target: T1, SIK2 (Homo sapiens, UniProt Q9H0K1); experiment: KinomeScan; assay type: binding; settings: read-out: % Control
T1 construct: purchased DiscoveRx (Fremont, CA)

GAL2 = target: T2, GAL2 (Homo sapiens, UniProt O43603); experiment: GPCR Profiler; assay type: cell-based
T2 construct: host or cells: Chem-1 cells expressing Gα15

CaS = target: T3, CaS (Homo sapiens, UniProt P41180); experiment: GPCR Profiler; assay type: cell-based
T3 construct: host or cells: Chem-1 cells with promiscuous Gα15

TYRO3 = target: T4, TYRO3 (Homo sapiens, UniProt Q06418); experiment: KinomeScan; assay type: binding; settings: read-out: % Control
T4 construct: purchased DiscoveRx

DYRK1B = target: T5, DYRK1B (Homo sapiens, UniProt Q9Y463); experiment: KinomeScan; assay type: binding; settings: read-out: % Control
T5 construct: purchased DiscoveRx (Fremont, CA), KinomeScan service

FRK = target: T6, FRK (Homo sapiens, UniProt P42685); experiment: KinomeScan; assay type: binding; settings: read-out: % Control
T6 construct: purchased DiscoveRx (Fremont, CA)

HIPK3 = target: T7, HIPK3 (Homo sapiens, UniProt Q9H422); experiment: KinomeScan; assay type: binding; settings: read-out: % Control
T7 construct: purchased DiscoveRx (Fremont, CA)

CLK1 = CLK1 (Homo sapiens, UniProt P49759); experiment: KinomeScan; assay type: binding; settings: read-out: % Control
PAK2 = target: T8, PAK2 (Homo sapiens, UniProt Q13177); experiment: KinomeScan; assay type: binding; settings: read-out: % Control
T8 construct: purchased DiscoveRx

EGFR(L747-T751del, Sins) = target: T9, EGFR(L747-T751del, Sins) (Homo sapiens, UniProt P00533, DEL747-750/T751S); experiment: KinomeScan; assay type: binding; settings: read-out: % Control
T9 construct: purchased DiscoveRx (Fremont, CA), KinomeScan service

MRCKB = target: T10, MRCKB (Homo sapiens, UniProt Q9Y5S2); experiment: KinomeScan; assay type: binding; settings: read-out: % Control
T10 construct: purchased DiscoveRx

MEK3 = target: T11, MEK3 (Homo sapiens, UniProt P46734); experiment: KinomeScan; assay type: binding; settings: read-out: % Control
T11 construct: purchased DiscoveRx (Fremont, CA)

TSSK1B = target: T12, TSSK1B (Homo sapiens, UniProt Q9BXA7); experiment: KinomeScan; assay type: binding; settings: read-out: % Control
T12 construct: purchased DiscoveRx (Fremont, CA)

GPR39 = target: T13, GPR39 (Homo sapiens, UniProt O43194); experiment: GPCR Profiler; assay type: cell-based
T13 construct: host or cells: Chem-1 cells expressing Gα15

TBK1 = target: T14, TBK1 (Homo sapiens, UniProt Q9UHD2); experiment: KinomeScan; assay type: binding; settings: read-out: % Control
T14 construct: purchased DiscoveRx (Fremont, CA)

EGFR(L858R) = target: T15, EGFR(L858R) (Homo sapiens, UniProt P00533, L858R); experiment: KinomeScan; assay type: binding; settings: read-out: % Control
T15 construct: purchased DiscoveRx (Fremont, CA), KinomeScan service

WEE2 = target: T16, WEE2 (Homo sapiens, UniProt P0C1S8); experiment: KinomeScan; assay type: binding; settings: read-out: % Control
T16 construct: purchased DiscoveRx

EPHA4 = target: T17, EPHA4 (Homo sapiens, UniProt P54764); experiment: KinomeScan; assay type: binding; settings: read-out: % Control
T17 construct: purchased DiscoveRx (Fremont, CA)

T3 sequence (P41180 20-1078): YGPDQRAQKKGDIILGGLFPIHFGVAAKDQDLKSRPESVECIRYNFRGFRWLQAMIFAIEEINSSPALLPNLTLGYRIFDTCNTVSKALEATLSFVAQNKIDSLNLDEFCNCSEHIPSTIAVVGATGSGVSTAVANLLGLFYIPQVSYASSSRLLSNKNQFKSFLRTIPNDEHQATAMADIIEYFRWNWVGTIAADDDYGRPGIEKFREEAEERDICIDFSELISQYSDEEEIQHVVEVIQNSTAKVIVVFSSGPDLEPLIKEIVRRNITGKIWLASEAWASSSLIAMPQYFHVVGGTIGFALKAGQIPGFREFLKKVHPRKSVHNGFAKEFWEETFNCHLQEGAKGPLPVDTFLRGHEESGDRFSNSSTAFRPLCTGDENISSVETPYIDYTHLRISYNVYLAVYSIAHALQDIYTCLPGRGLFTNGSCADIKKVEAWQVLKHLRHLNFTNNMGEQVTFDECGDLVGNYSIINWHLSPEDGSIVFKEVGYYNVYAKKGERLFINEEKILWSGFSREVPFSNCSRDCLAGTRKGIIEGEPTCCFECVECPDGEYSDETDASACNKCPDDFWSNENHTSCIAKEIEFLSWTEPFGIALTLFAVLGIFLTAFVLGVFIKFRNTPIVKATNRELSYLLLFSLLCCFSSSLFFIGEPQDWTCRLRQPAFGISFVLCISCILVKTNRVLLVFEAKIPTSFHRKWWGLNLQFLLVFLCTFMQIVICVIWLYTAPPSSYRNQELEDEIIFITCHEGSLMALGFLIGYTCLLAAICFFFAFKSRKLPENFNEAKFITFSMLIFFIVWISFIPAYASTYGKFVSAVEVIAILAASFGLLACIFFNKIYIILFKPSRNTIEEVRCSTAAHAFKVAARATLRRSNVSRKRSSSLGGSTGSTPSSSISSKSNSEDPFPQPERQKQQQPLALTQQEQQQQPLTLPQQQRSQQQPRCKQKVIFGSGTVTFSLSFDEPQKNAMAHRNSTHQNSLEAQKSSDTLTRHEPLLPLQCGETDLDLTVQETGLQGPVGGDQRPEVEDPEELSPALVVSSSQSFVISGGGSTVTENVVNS
T2 sequence (O43603 whole entry): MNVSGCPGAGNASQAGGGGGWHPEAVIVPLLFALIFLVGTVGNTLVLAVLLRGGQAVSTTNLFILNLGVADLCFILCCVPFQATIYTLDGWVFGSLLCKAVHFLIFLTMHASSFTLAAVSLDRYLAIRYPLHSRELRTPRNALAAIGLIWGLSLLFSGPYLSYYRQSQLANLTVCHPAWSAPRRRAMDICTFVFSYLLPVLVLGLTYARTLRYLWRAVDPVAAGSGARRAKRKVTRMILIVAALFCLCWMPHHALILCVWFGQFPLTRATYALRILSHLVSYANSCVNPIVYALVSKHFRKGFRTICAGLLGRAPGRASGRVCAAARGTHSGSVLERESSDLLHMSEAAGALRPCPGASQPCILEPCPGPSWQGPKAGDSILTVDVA
T13 sequence (O43194 whole entry): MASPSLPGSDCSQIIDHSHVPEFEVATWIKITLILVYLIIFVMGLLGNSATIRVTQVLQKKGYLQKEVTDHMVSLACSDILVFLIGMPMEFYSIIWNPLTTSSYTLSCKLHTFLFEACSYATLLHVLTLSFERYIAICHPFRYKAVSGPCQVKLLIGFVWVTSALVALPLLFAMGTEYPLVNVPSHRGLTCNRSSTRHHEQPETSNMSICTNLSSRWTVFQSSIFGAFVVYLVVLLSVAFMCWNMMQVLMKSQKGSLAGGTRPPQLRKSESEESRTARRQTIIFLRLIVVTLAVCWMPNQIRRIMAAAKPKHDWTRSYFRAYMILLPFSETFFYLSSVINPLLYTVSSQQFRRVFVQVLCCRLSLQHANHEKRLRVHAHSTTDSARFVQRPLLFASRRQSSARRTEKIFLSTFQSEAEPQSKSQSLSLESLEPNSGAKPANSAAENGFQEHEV
Chain of CLK1 (P49759 whole entry): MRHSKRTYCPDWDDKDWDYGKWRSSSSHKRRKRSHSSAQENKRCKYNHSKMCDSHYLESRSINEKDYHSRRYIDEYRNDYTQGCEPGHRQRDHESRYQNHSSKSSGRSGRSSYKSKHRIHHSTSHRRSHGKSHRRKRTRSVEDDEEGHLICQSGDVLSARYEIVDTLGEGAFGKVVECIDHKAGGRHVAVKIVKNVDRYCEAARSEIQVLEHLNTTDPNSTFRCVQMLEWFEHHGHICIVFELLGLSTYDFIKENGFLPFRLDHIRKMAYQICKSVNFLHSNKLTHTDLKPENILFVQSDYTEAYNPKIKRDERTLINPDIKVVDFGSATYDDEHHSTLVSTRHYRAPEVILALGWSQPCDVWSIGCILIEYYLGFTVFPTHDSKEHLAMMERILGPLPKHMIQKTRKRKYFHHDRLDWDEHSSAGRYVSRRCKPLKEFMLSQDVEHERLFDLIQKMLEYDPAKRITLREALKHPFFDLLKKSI
T5 sequence (Q9Y463 whole entry): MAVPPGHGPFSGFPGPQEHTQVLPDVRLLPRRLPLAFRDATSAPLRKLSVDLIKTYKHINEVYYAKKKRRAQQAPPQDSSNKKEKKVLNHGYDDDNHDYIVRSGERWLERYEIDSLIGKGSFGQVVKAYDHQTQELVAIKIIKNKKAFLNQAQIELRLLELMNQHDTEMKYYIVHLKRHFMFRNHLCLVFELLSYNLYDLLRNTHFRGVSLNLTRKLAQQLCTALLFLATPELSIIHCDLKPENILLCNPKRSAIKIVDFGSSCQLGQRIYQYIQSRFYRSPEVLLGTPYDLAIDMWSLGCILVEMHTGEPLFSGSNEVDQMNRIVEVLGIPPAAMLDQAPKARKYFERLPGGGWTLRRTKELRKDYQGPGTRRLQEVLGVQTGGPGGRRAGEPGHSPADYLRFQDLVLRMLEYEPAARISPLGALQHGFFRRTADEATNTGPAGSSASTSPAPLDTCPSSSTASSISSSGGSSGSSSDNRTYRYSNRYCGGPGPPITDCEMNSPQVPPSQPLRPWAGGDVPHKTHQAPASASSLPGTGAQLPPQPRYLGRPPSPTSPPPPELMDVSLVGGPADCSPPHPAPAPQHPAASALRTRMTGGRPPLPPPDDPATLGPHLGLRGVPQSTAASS
T6 sequence (P42685 whole entry): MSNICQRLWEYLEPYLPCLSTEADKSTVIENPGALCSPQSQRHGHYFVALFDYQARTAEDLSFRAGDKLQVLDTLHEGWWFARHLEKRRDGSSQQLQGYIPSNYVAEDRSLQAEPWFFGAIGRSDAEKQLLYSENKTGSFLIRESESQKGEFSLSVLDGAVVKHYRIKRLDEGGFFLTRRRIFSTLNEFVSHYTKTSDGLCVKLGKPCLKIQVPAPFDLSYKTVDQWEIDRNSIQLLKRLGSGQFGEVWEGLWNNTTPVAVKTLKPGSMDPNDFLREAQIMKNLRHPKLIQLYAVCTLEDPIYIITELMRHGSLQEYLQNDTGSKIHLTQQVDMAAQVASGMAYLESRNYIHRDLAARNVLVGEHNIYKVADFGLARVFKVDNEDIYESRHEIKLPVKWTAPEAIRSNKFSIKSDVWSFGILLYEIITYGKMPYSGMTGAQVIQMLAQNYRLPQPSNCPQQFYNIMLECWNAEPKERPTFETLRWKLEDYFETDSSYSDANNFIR
T1 sequence (Q9H0K1 whole entry): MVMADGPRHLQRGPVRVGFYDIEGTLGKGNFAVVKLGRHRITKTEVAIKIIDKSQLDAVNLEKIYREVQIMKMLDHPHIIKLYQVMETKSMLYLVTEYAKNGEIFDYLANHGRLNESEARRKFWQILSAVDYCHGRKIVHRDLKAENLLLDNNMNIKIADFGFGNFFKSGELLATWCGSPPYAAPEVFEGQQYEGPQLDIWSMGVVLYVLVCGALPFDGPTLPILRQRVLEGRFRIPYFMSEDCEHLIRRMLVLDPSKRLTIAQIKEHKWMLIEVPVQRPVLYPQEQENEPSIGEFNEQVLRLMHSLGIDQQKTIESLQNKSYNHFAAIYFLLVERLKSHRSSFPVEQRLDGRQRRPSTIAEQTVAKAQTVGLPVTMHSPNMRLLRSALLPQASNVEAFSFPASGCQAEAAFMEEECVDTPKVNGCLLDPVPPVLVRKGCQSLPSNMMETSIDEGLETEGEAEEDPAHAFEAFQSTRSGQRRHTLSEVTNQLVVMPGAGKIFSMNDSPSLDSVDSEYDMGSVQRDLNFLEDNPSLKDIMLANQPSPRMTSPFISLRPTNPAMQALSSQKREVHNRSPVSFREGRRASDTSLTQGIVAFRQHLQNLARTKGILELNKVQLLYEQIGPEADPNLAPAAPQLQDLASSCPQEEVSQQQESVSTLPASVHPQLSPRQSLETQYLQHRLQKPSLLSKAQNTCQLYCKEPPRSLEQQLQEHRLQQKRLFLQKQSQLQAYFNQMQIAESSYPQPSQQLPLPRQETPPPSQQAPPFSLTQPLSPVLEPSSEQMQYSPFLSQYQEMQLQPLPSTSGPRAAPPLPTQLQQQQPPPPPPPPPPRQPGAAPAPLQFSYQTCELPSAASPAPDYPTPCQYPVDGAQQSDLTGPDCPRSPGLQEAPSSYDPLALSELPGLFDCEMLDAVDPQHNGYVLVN
T9 sequence (P00533 with tags, fused parts or gaps DEL747-750/T751S limits assumed): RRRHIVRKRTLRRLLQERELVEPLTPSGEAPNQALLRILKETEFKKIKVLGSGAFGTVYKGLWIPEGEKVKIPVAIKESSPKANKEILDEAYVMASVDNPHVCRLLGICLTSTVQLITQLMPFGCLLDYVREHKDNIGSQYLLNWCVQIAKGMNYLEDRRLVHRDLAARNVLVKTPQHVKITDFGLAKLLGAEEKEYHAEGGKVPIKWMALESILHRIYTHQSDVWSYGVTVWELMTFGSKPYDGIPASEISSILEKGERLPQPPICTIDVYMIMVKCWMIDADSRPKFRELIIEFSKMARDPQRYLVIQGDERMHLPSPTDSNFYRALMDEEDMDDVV

CCc1ccc2c(c1)C1(NN=C(c3ccccc3)S1)C(=O)N2 (centres unmarked) [OGM2]
Class (HeLa): Mildly | % Survival 2 μM OGM (HeLa; 72 hours): 91.5% | % Survival 10 μM OGM (HeLa; 72 hours): 68.0% | CC50 (HeLa; Homo sapiens, HeLa, 72 hours, read-out: LC50 (the source's name)): > 10 µM | Class (HeLa; Table 13): Low | Class (MDA-MB-436): Sensitive (Sensitive (LC50=2 to 10 μM)) | % Survival 2 μM OGM (MDA-MB-436; 72 hours): 52.6% | % Survival 10 μM OGM (MDA-MB-436; 72 hours): 35.7% | CC50 (MDA-MB-436; Homo sapiens, MDA-MB-436, 72 hours, read-out: LC50 (the source's name)): 2 to 10 µM | Class (MCF7): Sensitive (Sensitive (LC50=2 to 10 μM)) | % Survival 2 μM OGM (MCF7; 72 hours): 50.6% | % Survival 10 μM OGM (MCF7; 72 hours): 25.2% | CC50 (MCF7; Homo sapiens, MCF7, 72 hours, read-out: LC50 (the source's name)): 2 to 10 µM | Class (MDA-MB-231): Sensitive (Sensitive (LC50=2 to 10 μM)) | % Survival 2 μM OGM (MDA-MB-231; 72 hours): 70.1% | % Survival 10 μM OGM (MDA-MB-231; 72 hours): 48.1% | CC50 (MDA-MB-231; Homo sapiens, MDA-MB-231, 72 hours, read-out: LC50 (the source's name)): 2 to 10 µM

CCc1ccc2c(c1)C1(NN=C(c3cccc4ccccc34)S1)C(=O)N2 (centres unmarked) [OGM1, 5-ethyl-5′-naphthalen-1-ylspiro[1H-indole-3,2′-3H-1,3,4-thiadiazole]-2-one]
remaining binding at 10 µM (SIK2): 100% | Antagonism (GAL2; 10 uM): 1 | Agonism (GAL2; 12.5 uM): 0.4 | Antagonism (CaS; 10 uM): −3.6 | Agonism (CaS; 12.5 uM): −1.2 | remaining binding at 10 µM (TYRO3): 100% | remaining binding at 10 µM (DYRK1B): 58% | remaining binding at 10 µM (FRK): 100% | remaining binding at 10 µM (HIPK3): 67% | remaining binding at 10 µM (CLK1): 100% | remaining binding at 10 µM (PAK2): 72% | remaining binding at 10 µM (EGFR(L747-T751del, Sins)): 100% | remaining binding at 10 µM (MRCKB): 100% | remaining binding at 10 µM (MEK3): 100% | remaining binding at 10 µM (TSSK1B): 79% | Antagonism (GPR39; 10 uM): 5.4 | Agonism (GPR39; 12.5 uM): 0 | remaining binding at 10 µM (TBK1): 90% | remaining binding at 10 µM (EGFR(L858R)): 100% | remaining binding at 10 µM (WEE2): 100% | remaining binding at 10 µM (EPHA4): 100%
